The values that follow come from patent US20240245677A1, “SELECTED COMPOUNDS FOR TARGETED DEGRADATION OF BRD9” (C4 THERAPEUTICS, INC., priority 2021, published 2024).

The target in this test is T1, BRD4 (Homo sapiens, UniProt O60885).
T1 construct: endogenously expressing BRD4 with HiBiT fusion tag via CRISPR; endogenous in cells; host or cells: HEK293T.92 (made in-house from 293T, ATCC CRL-3216)
Nature of the test: BRD4 HiBiT degradation assay in HEK293T.92 cells. It is filed as cell-based. An excerpt: This assay evaluates the degradation of Bromodomain Containing 4 (BRD4) induced by treatment with Compound 1 as measured by luminescence using Nano-Glo® HiBiT Lytic Assay System in HEK293 cells CRISPR-edited to endogenously express HiBiT tagged BRD4.
Nano-Glo® HiBiT Lytic Assay System was purchased from Promega (Catalog No. N3050, Madison, WI, USA). 293T cells were obtained from ATCC (Catalog No. CRL-3216, Manassas, VA, USA), and maintained in Dulbecco's modified Eagle medium (DMEM) (Catalog No. 12430112, ThermoFisher Scientific, Waltham, MA, USA) supplemented with 10% fetal bovine serum (FBS) (Catalog No. 16000-044, Gibco, Grand Island, NY, USA) at 37° C. in an atmosphere of 5% CO2 in air. The HiBiT polypeptide tag was introduced into the N-terminus of the endogenous BRD4 locus by CRISPR-Cas9 to produce the modified HEK293T.92 cell line. The HiBiT polypeptide allows reconstitution of NanoBiT enzyme following cell lysis and addition of the complementing LgBiT polypeptide that activates substrate to produce a luminescent signal that is directly proportional to the amount of HiBiT-tagged BRD4.
The HEK293T.92 cells were routinely sub-cultured to maintain cell density between 30-80% confluence, not to exceed 20 passages. Cells were washed with PBS pH 7.4 (Catalog No. 10010049, ThermoFisher Scientific, Waltham, MA, USA), trypsinized for 5 minutes at 37° C., and resuspended in fresh growth media without phenol red. An aliquot was diluted 2× with Trypan Blue solution 0.4% (Catalog No. 15250061, ThermoFisher Scientific, Waltham, MA, USA) and cell count determined. Cell concentration was adjusted with growth media without phenol red to 5.0×10^5 cells/mL.
Compound 1 was prepared by dissolving neat compounds in DMSO (Catalog No. D8418, Sigma-Aldrich, Inc., St. Louis, MO, USA) to generate 10 mM stock solution and stored at −20° C. The 10 mM DMSO stock solution of Compound 1 was serially diluted (half log) in DMSO to generate 11-point dose series (10000, 3165, 1000, 316, 100, 31.6, 10, 3.2, 1, 0.32, 0.1 μM) in an acoustic ready 384-well low dead volume microplate (Catalog No. LP-0200, Beckman Coulter Life Sciences, Indianapolis, IN, USA). Using an Echo 550 Acoustic Liquid Handler (Beckman Coulter Life Sciences, Indianapolis, IN, USA), 30 nL of serially diluted compound solutions were dispensed in duplicate to each 384-well TC-treated microplate (Catalog No. 3571, Corning, Glendale, CA, USA). 30 nL DMSO was transferred to all control wells.
30 μL of 293T.92 cells suspended in growth media without phenol red at 5.0×10^5 cells/mL (15000 cells/well) were dispensed using a Multidrop Combi Reagent Dispenser (Catalog No. 5840300, ThermoFisher Scientific, Waltham, MA, USA) to each well of columns 1-23 of 384-well TC-treated microplates containing duplicate concentration range of test compounds and DMSO controls. 30 μL of media was dispensed to column 24 as background positive control (P). Plates were spun briefly at 1000 rpm and cells were incubated at 37° C., 5% CO2 for 24 hours. Final concentration of DMSO was 0.1% for all samples.
Cellular BRD4 protein level was determined based on quantification of HiBiT using Nano-Glo® HiBiT Lytic Assay System (Promega). 30 μL Nano-Glo Lytic Assay reagents were added to each well and luminescence was acquired on EnVision® Multilabel Reader (Catalog No. 2104-0010, Perkin Elmer Inc., Dumfries, VA, USA). Cells treated in the absence of the test compound (0.1% DMSO vehicle) were the negative control (N) and wells containing only media were the positive control (P).
Percent response of compound-treated samples (T) were calculated by normalizing to the DMSO treated negative (N) controls on the same microtiter plate after background (i.e., positive control) signal subtraction:
Curve fit and DC50 (concentration that degrades 50% BRD4) determination was performed by 4 parametric logistic fit analysis using software such as GraphPad Prism software (GraphPad Software, LLC, San Diego, CA, USA). […]

Where two headings read alike, the source gives them in different places. Some results are limits rather than exact numbers.

`COc1cc(-c2cn(C)c(=O)c(C)c2C)cc(OC)c1CN1CC[C@H](N2CCN(c3ccc(N[C@H]4CCC(=O)NC4=O)cc3F)CC2)C(F)(F)C1` [Compound 1, (S)-3-((4-(4-((S)-1-(2,6-dimethoxy-4-(1,4,5-trimethyl-6-oxo-1,6-dihydropyridin-3-yl)benzyl)-3,3-difluoropiperidin-4-yl)piperazin-1-yl)-3-fluorophenyl)amino)-piperidine-2,6-dione]: the “% BRD4 Remaining Relative to Vehicle Control at 24 hr, Mean” value reads like this: (0.101 nM) 96.1%; (0.318 nM) 96.3%; (1.01 nM) 96.3%; (3.17 nM) 96.1%; (10.0 nM) 96.0%; (31.7 nM) 96.4%. For the same molecule, the “% BRD4 Remaining Relative to Vehicle Control at 24 hr, Mean” value turned out to be 95.8% (100 nM); 92.5% (317 nM); 89.2% (1000 nM); 84.4% (3161 nM); 78.1% (9990 nM). Also, the DC50 (usually the concentration giving 50% degradation) (BRD4-HiBiT, 293T.92 cells, 24 hours, read-out: Mean DC50) was above 10 µM and the DC50 (summary statement, read-out: DC50 against BRD4) is above 1 µM. Moreover, the Emax (usually the maximal effect, on the per cent scale that the assay sets) (BRD4-HiBiT, 293T.92 cells, 24 hours, read-out: Mean Emax (%) ± SD) came to 78.1 ± 3.41%. For the same molecule, where the note is “concentrations up to 10 μM, 24 hours”, the “effect on the degradation of BRD4” value is “no significant effect”.
